Measurements from ChEMBL document CHEMBL1201862, “PubChem BioAssay data set” (2004).
Active and inactive are the calls of the source.

Assays:
[1] = biological target: 5-hydroxytryptamine receptor 2A (Mus musculus, UniProt P35363); assay type: functional, cell-based;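 note: CHO-K1 cells with tagged receptor and beta-arrestin; agonist potency measured as compound-induced activation of the receptor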
[2] = biological target: Mu-type opioid receptor (Homo sapiens, UniProt P35372); assay type: functional, cell-based;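 note: U2OS cells with beta-arrestin recruitment to OPRM1 by beta-gal complementation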
[3] = biological target: T1, Cysteine protease ATG4B (Homo sapiens, UniProt Q9Y4P1); assay type: functional;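 note: Fluorescence-based dose-response confirmation assay measuring inhibition of ATG4B activity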
T1 sequence (Q9Y4P1 whole entry): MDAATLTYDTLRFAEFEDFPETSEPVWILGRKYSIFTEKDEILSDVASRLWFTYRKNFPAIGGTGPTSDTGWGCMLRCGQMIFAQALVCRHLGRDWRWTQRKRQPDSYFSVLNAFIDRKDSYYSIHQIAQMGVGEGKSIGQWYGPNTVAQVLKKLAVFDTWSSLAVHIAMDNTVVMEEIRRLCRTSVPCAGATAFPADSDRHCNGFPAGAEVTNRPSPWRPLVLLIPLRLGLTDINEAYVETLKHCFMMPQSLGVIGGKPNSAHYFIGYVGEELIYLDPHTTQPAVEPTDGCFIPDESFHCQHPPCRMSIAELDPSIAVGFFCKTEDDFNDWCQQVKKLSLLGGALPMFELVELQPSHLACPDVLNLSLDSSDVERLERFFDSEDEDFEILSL

[4] = inhibitors of HIV Env-driven cell fusion, dose response, cherry-pick (AID 652057); assay type: functional, cell-based
[5] = inhibitors of clade B AD8 Env fusion, dose response, cell-based, cherry-pick (AID 652062); assay type: functional;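 note: luciferase signal from cell-cell fusion driven by HIV-1 clade B AD8 Env; potency is for inhibitors of fusion seen as a drop in luminescence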
[6] = Luminescence Cell-Based Dose Retest to Confirm Inhibitors of Cancer Stem Cells. [Related pubchem assays (depositor defined):AID2717, AID2721]; assay type: functional; details: Homo sapiens
[7] = biological target: Phospholipase A2 (Homo sapiens, UniProt P04054); assay type: functional;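 note: confirmatory dose-response counterscreen on phospholipase A2, testing hits that came from an ultra-high-throughput screen for ATG4B inhibitors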
[8] = off-target signal loss in HeLa-CEM21 co-culture – HeLa F-luc CTL cells, cherry-picked, counter-screen for HIV-1 Env fusion inhibitor project, dose response (AID 652040); assay type: functional, cell-based;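 note: potency for signal decrease marking cytotoxic or nonspecific inhibition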
[9] = CEM21 lymphoblast cell cytotoxicity, dose response, cytotoxicity control for viral fusion inhibitor project, CellTiter-Glo luminescence, cherry-picked (AID 652042); assay type: functional, cell-based;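 note: potency for signal decrease meaning cytotoxicity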
[10] = cells; assay type: functional, cell-based
[11] = biological target: T2, Nuclear receptor subfamily 0 group B member 1 (Homo sapiens, UniProt P51843); assay type: functional, cell-based;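 note: HEK293T cells transfected with SF-1 and DAX-1 plus StAR promoter luciferase reporter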
T2 sequence (P51843 whole entry): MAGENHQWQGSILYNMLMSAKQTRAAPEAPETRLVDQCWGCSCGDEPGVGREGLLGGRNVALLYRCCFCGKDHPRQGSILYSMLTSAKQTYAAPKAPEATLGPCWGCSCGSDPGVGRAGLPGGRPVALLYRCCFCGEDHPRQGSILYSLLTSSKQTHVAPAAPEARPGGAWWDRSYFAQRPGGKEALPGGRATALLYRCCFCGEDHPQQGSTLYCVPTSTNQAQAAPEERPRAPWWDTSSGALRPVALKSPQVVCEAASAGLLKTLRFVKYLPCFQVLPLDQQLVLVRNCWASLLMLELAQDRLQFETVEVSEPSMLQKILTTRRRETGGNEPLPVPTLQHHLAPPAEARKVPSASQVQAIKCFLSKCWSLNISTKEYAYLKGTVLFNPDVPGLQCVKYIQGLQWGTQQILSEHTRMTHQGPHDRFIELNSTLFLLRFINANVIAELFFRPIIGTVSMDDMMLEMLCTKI

[12] = inhibitors of SNCA 5'UTR-driven reporter translation, confirmation, H4 neuroglioma cells, luminescence (AID 1988); assay type: functional, cell-based
[13] = LGR2 antagonists, dose response, cell-based, HEK293, CRE-luciferase reporter, cherry pick, set 2 (AID 743343); assay type: functional;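 note: transfected cells were stimulated with diluted bursicon conditioned medium after compound addition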
[14] = Luminescence Cell-Based Dose Response HTS to Identify Inhibitors of 5'UTR Stem-Loop Driven Prion Protein mRNA Translation in H4 Neuroglioblastoma Cells. [Related pubchem assays: 1827 (Project Summary), 1813 (Primary HTS)]; assay type: functional
[15] = MC4R antagonists, dose response, counter-screen for LGR2 antagonist project, cell-based, plate reader, cherry pick (AID 743444); assay type: functional;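 note: transfected HEK 293 cells stimulated with alpha-MSH peptide; potency of inhibitors of the alpha-MSH evoked signal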
[16] = inhibitors of firefly luciferase expression or activity, dose response, H4 neuroglioma cells, luminescence (AID 1990); assay type: functional, cell-based
[17] = system: HEK293; experiment: inhibitors of LMP1-driven NF-kB reporter, dose response, cell-based, HEK293, luciferase, cherry-pick (AID 588343); assay type: functional; details: Homo sapiens
[18] = ZM109 Env clade C HIV-1 fusion inhibitors, dose response, HeLa effector, CEM target cells, luciferase, cherry-pick (AID 652058); assay type: functional, cell-based
[19] = biological target: Ras and Rab interactor 1/Tyrosine-protein kinase ABL1 (Homo sapiens, UniProt P00519+Q13671); assay type: functional;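 note: biochemical TR-FRET dose-response test measuring inhibition of binding between Rin1 and Abl proteins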
[20] = inhibitors of intracellular T. cruzi replication, confirmation, NIH3T3 host cells, beta-gal luminescence (AID 2044); assay type: functional, cell-based;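 note: intracellular parasites grown in NIH/3T3 mouse fibroblasts as host cells; luminescent beta-galactosidase reporter signal from transgenic T. cruzi replicating inside host cells; inhibitors lower the luminescence signal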
[21] = biological target: Beta-galactosidase (Escherichia coli, UniProt Q8VNN2); experiment: Dose response counterscreen for EBI2 assay utilizing the enzyme, b-galactosidase.; assay type: functional
[22] = cytotoxicity toward NIH3T3 fibroblasts, dose response, counter-screen, cell-based, ATP luminescence, mouse fibroblasts (AID 2010); assay type: functional;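 note: cells exposed to compound for about 90 hours before reading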
[23] = biological target: T3, Beta-lactamase (Pseudomonas aeruginosa, UniProt Q79MP6); experiment: IMP-1 metallo-beta-lactamase inhibitors, dose response, selectivity assay for VIM-2 inhibitor project, biochemical, epi-absorbance (AID 1920)
[24] = biological target: T3, Beta-lactamase; experiment: […] counterscreen for selective VIM-2 inhibitors: dose response biochemical high throughput screening assay to identify inhibitors of IMP-1 metallo-beta-lactamase.
[25] = biological target: Beta-lactamase (Salmonella choleraesuis (strain SC-B67), UniProt Q5J463); experiment: Epi-absorbance-based counterscreen for selective VIM-2 inhibitors: dose response biochemical high throughput screening assay to identify inhibitors of TEM-1 serine-beta-lactamase.
Beta-lactamase (Salmonella choleraesuis (strain SC-B67), UniProt Q5J463), sequence (Q5J463 whole entry): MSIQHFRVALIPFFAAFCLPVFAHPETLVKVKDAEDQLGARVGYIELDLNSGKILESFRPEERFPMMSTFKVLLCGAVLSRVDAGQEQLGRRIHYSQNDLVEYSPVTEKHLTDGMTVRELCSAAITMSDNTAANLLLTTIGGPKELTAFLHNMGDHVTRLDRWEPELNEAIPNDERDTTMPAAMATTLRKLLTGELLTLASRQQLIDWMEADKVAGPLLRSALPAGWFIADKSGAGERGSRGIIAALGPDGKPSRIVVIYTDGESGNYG

T3 sequence (Q79MP6 whole entry): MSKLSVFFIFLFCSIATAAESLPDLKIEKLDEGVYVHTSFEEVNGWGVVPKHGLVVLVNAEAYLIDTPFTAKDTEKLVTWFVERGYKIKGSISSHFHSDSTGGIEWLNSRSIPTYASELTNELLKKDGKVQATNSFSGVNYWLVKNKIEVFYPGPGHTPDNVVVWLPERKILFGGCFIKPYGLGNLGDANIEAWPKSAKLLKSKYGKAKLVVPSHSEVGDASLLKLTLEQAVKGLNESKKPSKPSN
Beta-galactosidase, sequence (Q8VNN2 whole entry): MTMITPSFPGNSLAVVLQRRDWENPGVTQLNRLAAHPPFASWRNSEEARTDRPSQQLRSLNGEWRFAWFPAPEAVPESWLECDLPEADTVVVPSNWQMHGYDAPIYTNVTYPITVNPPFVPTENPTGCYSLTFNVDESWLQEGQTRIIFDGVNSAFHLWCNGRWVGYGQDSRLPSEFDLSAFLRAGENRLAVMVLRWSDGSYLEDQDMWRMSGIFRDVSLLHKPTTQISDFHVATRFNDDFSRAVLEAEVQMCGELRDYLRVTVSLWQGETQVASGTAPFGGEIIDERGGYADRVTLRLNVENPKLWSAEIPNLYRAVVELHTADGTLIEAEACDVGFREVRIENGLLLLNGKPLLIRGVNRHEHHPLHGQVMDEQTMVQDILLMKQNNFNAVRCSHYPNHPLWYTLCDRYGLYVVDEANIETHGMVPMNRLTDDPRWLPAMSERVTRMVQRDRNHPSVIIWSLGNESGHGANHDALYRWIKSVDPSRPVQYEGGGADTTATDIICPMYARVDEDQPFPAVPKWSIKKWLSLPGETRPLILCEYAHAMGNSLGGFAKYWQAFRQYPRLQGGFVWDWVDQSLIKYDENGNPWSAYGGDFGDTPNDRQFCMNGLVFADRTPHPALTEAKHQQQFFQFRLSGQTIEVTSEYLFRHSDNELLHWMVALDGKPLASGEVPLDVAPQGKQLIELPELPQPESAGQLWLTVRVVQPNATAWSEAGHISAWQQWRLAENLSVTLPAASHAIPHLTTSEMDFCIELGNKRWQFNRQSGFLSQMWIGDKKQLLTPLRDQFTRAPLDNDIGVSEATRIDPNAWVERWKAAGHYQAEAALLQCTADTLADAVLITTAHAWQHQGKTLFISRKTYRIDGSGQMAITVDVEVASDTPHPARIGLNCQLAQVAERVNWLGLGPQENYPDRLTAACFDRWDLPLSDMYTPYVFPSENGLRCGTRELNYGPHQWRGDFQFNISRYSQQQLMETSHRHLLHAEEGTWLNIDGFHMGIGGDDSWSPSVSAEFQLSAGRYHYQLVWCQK
Mu-type opioid receptor, sequence (P35372 whole entry): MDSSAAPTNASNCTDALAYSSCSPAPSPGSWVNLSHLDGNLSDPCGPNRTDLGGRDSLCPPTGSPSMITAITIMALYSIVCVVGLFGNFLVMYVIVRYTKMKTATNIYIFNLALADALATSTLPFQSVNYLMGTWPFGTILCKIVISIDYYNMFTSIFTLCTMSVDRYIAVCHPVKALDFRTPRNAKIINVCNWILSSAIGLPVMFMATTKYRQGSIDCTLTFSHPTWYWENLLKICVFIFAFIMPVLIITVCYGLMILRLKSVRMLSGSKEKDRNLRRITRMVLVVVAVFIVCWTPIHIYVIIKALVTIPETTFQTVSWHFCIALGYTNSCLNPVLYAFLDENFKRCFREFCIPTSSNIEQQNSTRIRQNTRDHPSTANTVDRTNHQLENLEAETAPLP
5-hydroxytryptamine receptor 2A, sequence (P35363 whole entry): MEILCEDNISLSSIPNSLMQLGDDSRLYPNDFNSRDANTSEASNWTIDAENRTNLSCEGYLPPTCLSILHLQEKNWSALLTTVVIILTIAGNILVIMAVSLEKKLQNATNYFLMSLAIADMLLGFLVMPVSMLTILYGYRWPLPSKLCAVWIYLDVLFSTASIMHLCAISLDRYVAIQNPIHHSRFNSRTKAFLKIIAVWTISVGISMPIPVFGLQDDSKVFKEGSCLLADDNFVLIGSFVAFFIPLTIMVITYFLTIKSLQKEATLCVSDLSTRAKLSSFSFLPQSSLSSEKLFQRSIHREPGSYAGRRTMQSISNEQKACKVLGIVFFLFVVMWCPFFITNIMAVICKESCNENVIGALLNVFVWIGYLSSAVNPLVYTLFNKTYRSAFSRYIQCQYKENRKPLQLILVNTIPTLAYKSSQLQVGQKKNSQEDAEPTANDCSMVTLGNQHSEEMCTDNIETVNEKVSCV
Ras and Rab interactor 1/Tyrosine-protein kinase ABL1, sequence (P00519 whole entry): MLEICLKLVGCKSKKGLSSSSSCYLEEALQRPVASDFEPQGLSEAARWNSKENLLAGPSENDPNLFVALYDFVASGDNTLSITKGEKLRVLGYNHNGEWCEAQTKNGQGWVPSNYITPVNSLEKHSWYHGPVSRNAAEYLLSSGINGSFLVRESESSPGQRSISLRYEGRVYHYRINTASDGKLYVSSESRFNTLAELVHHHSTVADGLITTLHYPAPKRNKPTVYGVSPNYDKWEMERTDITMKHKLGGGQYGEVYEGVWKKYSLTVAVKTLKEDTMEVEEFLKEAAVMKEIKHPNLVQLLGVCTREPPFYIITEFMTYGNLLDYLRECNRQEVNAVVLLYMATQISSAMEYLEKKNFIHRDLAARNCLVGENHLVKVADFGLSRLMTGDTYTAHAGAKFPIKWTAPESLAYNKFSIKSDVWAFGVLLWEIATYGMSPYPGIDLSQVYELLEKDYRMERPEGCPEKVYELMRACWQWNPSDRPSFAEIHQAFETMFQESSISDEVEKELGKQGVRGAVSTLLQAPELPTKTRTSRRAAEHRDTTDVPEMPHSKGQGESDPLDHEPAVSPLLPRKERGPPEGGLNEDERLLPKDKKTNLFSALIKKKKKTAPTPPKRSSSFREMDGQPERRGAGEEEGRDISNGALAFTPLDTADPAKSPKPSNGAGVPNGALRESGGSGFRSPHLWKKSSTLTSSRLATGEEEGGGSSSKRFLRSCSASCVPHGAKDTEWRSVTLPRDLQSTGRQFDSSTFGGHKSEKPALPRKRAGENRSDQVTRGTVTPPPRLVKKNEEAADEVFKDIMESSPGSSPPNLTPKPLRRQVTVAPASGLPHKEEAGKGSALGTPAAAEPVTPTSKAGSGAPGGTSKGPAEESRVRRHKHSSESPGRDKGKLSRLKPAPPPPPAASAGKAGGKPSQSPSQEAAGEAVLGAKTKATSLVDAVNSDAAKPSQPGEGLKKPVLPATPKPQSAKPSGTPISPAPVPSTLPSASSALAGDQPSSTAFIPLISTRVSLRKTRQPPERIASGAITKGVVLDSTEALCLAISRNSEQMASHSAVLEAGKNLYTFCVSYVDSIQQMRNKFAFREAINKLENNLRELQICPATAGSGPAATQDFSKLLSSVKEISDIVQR
Ras and Rab interactor 1/Tyrosine-protein kinase ABL1, sequence (Q13671 whole entry): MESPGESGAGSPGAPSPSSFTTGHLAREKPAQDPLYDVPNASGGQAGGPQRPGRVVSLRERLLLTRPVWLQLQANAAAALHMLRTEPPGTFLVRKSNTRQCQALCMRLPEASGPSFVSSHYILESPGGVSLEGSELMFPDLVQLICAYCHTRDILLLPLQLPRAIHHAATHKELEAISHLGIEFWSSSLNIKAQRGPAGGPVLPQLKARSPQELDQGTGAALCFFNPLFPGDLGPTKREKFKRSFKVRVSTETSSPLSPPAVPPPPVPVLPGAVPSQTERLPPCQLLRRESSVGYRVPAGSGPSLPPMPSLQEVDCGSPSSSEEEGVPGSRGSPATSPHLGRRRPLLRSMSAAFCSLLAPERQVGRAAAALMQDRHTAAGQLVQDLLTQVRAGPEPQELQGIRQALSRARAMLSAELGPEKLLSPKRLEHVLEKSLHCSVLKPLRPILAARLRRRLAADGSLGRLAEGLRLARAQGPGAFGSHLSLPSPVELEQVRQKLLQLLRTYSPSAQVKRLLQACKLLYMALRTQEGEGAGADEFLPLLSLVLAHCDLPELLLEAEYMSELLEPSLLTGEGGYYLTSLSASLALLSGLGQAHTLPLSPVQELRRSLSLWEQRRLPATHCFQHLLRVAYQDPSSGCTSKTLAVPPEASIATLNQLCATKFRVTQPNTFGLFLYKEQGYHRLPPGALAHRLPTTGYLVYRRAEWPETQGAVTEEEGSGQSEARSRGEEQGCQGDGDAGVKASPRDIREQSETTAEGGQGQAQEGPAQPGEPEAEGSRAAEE
Phospholipase A2, sequence (P04054 whole entry, the tested form may be a part): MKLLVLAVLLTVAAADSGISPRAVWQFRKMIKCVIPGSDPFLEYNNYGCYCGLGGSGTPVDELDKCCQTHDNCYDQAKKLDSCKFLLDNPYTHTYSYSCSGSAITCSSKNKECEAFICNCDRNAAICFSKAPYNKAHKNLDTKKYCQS

**Q.** Which EC50 [1] does the source give for `CCCN1CCO[C@@H]2c3cc(O)ccc3OC[C@H]21` here?
**A.** Its EC50 is 0.0216 µM (active).

**Q.** What about the EC50 [2] of the same molecule?
**A.** Its EC50 is 92.5 µM (inactive).

**Q.** Which IC50 [3] does the source give for `CCC(=O)NC(=S)Nc1cccc(Cl)c1N1CCCCC1` here?
**A.** Its IC50 is 6.09 µM (active).

**Q.** And the AC50 [4]?
**A.** The AC50 was 17.3 µM (active).

**Q.** What about the AC50 [5] of the same molecule?
**A.** The AC50 was 38.5 µM (active).

**Q.** What about the AC50 [6] of the same molecule?
**A.** The AC50 was 5.27 µM (active).

**Q.** What about the IC50 [7] of the same molecule?
**A.** Its IC50 is 3.78 µM (active).

**Q.** What about the AC50 [8] of the same molecule?
**A.** The AC50 was > 70 µM (inactive).

**Q.** And the AC50 [9]?
**A.** Its AC50 is 36.5 µM (active).

**Q.** Which IC50 [10] does the source give for `COC(=O)c1ccc2nc(-c3cccc(N)c3)cn2c1` here?
**A.** Its IC50 is > 67.5 µM (inactive).

**Q.** What about the IC50 [11] of the same molecule?
**A.** Its IC50 is > 0.834 µM (active).

**Q.** What about the EC50 [12] of the same molecule?
**A.** The EC50 was 6.89 µM (active).

**Q.** And the AC50 [13]?
**A.** Its AC50 is 3.22 µM (active).

**Q.** And the EC50 [14]?
**A.** The EC50 was > 60 µM (not active).

**Q.** What about the AC50 [15] of the same molecule?
**A.** The AC50 was 2.62 µM (active).

**Q.** What about the EC50 [16] of the same molecule?
**A.** The EC50 was > 60 µM (not active).

**Q.** What about the AC50 [17] of the same molecule?
**A.** Its AC50 is 2.21 µM (active).

**Q.** What does the source list for `COc1ccc(C2c3c(-c4ccccc4O)n[nH]c3C(=O)N2CCc2ccc(OC)c(OC)c2)cc1` (stereo not given)?
**A.** AC50 [18]: 2.44 µM (active); AC50 [4]: 1.94 µM (active); AC50 [5]: 1.17 µM (active); AC50 [8]: 3.07 µM (active); AC50 [9]: 65.5 µM (active)

**Q.** For `COc1ccc2oc(C(=O)NCC(c3ccco3)N(C)C)c(C)c2c1` (stereo not given), which IC50 [19] is on record?
**A.** Its IC50 is 3.82 µM (active).

**Q.** What does the source list for `O=C(c1ccc2ccccc2c1)N1CCN(S(=O)(=O)/C=C/c2ccccc2)CC1`?
**A.** EC50 [20]: 1.1 µM (active); IC50 [21]: > 80 µM (inactive); EC50 [22]: > 30 µM (not active)

**Q.** With `O=C(c1cc2ccccc2o1)N1CCN(S(=O)(=O)/C=C/c2ccccc2)CC1` as the molecule, how does the IC50 [21] read?
**A.** The IC50 was > 80 µM (inactive).

**Q.** Which IC50 [23] does the source give for `O=C(CSc1nnc(NC(=O)c2cc(Br)ccc2Cl)s1)NCC1CCCO1` (stereo not given) here?
**A.** Its IC50 is > 59.6 µM (inactive).

**Q.** What about the IC50 [24] of the same molecule?
**A.** Its IC50 is > 59.6 µM (inactive).

**Q.** What about the IC50 [25] of the same molecule?
**A.** The IC50 was > 59.6 µM (inactive).
